Test results from paper PMC9098912, “Molecular basis for inhibiting human glucose transporters by exofacial inhibitors” (Nature Communications, 2022).
Substitutions are numbered along the chain they refer to. “Also recorded” adds a separate entry of the source.

Assays:
[1] = target: T1, human GLUT3(N43T) (Homo sapiens, UniProt P11169, N43T); assay: Proteoliposome-based counterflow assay, inhibition of D-[2-3H]-glucose transport; type: biochemical
T1 construct: His10 (N); made in house; host or cells: Sf9 insect cells (baculovirus)
T1 sequence (P11169 1-496 N43T): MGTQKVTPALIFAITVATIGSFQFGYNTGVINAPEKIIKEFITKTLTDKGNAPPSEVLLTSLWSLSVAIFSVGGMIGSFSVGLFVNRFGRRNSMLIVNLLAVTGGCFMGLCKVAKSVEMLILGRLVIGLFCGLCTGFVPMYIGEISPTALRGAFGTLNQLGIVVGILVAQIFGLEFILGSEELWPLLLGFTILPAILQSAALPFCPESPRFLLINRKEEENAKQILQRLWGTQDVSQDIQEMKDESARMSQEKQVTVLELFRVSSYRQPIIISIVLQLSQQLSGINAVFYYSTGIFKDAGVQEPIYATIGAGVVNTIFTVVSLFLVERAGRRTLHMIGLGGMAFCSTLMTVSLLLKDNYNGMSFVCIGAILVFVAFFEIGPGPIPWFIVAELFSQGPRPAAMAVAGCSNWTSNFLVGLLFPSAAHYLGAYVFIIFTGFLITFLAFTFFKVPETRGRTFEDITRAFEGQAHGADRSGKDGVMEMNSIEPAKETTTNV
Method: (§1) All mutants were generated by standard PCR-based strategy.
(§2) All counterflow assays were performed at 25 °C. […] Liposome without protein was used as negative control.
(§3) All experiments were repeated at least three times.

[2] = target: T2, human glucose transporter GLUT1(N45T) (Homo sapiens, UniProt P11166, N45T); assay: as above; type: biochemical; conditions: GLUT1
T2 construct: made in house
T2 sequence (P11166 1-492 N45T): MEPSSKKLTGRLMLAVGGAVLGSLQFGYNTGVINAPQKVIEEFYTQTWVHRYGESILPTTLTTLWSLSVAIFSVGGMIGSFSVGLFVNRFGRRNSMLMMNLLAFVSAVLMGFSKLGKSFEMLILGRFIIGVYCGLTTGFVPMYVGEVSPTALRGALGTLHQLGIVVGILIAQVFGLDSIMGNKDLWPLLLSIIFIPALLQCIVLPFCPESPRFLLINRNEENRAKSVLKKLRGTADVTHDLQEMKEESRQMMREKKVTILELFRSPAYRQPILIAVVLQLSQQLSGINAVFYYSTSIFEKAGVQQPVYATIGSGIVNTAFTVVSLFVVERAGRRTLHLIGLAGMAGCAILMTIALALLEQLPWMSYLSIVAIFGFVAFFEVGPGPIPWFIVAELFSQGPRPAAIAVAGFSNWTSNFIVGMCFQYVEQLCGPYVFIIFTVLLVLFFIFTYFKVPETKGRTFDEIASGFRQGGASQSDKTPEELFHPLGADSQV
Method: as §1, §2, §3

[3] = target: T3, GLUT1 (Homo sapiens, UniProt P11166, N45T); assay: Microscale thermophoresis (MST) binding assay; conditions: for Figure 2c: MST binding curve, Mean: log[SA47]
T3 construct: made in house
T3 sequence (P11166 1-492 N45T): T2 sequence (P11166 1-492 N45T)
Method: as §1
(§4) Inhibitors with serial dilutions were mixed with indicated protein. […] MST analyses were conducted on a Monolith NT. […] The MST data was analyzed by Monolith NT.115.

[4] = target: T4, GLUT3exo (GLUT3 S64W and I305W) (Homo sapiens, UniProt P11169, I305W/N43T/S64W); assay: biochemical; type: binding; conditions: for Figure 2c: MST binding curve, Mean: GLUT3 dTrp mutant, log[SA47]
T4 construct: His10 (N); made in house; host or cells: Sf9 insect cells (baculovirus)
Method: Following the same principle for the engineering of XylE-WW, we introduced two Trp substitutions, S64W and I305W, on the extracellular segments of TM2 and TM8 of GLUT3, respectively. This variant will be referred to as GLUT3exo hereafter (Fig. 1a). The two bulky substituents were expected to trap GLUT3 in an outward-facing conformation.
as §1, §4

[5] = target: T5, GLUT3 S71A (Homo sapiens, UniProt P11169, N43T/S71A); assay: biochemical; type: binding
T5 construct: His10 (N); made in house; host or cells: Sf9 insect cells (baculovirus)
Method: as §1, §4

[6] = target: T6, GLUT3 T28A (Homo sapiens, UniProt P11169, N43T/T28A); assay: Binding of SA47 to GLUT3 variant; conditions: single point mutation T28A
T6 construct: His10 (N); made in house; host or cells: Sf9 insect cells (baculovirus)
T6 sequence (P11169 1-496 T28A/N43T): T1 sequence (P11169 1-496 N43T) with T28A

[7] = Water solubility; type: physicochemical; conditions: can only be applied up to 160 μM

T5 sequence (P11169 whole entry N43T/S71A): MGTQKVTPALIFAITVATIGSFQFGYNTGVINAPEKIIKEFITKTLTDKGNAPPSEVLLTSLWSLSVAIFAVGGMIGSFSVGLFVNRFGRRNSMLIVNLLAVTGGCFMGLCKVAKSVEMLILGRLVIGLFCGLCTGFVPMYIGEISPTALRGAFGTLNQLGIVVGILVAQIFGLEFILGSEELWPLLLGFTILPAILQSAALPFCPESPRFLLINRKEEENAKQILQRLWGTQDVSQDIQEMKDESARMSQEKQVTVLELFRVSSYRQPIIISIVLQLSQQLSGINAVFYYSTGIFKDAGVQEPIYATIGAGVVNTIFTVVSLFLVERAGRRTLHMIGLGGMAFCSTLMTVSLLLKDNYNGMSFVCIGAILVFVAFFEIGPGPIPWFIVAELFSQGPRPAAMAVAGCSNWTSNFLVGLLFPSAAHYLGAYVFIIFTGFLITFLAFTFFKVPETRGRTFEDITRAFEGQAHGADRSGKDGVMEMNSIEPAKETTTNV
T4 sequence (P11169 whole entry N43T/S64W/I305W): as the sequence (P11169 whole entry N43T/S71A) above, with S64W, A71S, I305W counted along it

SMILES: COC(=O)CCNCc1ccccc1-n1ncc2c(N3CCN(c4cc(F)ccc4OC)CC3)ncnc21 [SA47]
- IC50 [1]: 823 ± 138 nM
- inhibition at 160 µM ([1]; SA47 at 160 μM): ~85%
- IC50 [2]: 331 ± 38.3 nM
- inhibition at 160 µM ([2]; SA47 at 160 μM): ~85%
- Kd [3]: 310 ± 58.2 nM
- Figure 2c: MST binding curve, Mean ([3]; M -4.90309): 102.821
- Figure 2c: MST binding curve, Mean ([3]; M -5.20412): 94.0406
- Figure 2c: MST binding curve, Mean ([3]; M -5.50515): 85.0371
- Figure 2c: MST binding curve, Mean ([3]; M -5.80618): 78.9623
- Figure 2c: MST binding curve, Mean ([3]; M -6.10721): 63.517
- Figure 2c: MST binding curve, Mean ([3]; M -6.40824): 44.2639
- Figure 2c: MST binding curve, Mean ([3]; M -6.70927): 30.0958
- Figure 2c: MST binding curve, Mean ([3]; M -7.0103): 11.0052
- Figure 2c: MST binding curve, Mean ([3]; M -7.31133): 3.8567
- Figure 2c: MST binding curve, Mean ([3]; M -7.61236): 3.527
- Figure 2c: MST binding curve, Mean ([3]; M -7.91339): -1.6488
- Figure 2c: MST binding curve, Mean ([3]; M -8.21442): -3.8284
- Figure 2c: MST binding curve, Mean ([3]; M -8.51545): 7.0621
- Figure 2c: MST binding curve, Mean ([3]; M -8.81648): 2.3819
- Kd [4]: 314 ± 80.7 nM
- Figure 2c: MST binding curve, Mean ([4]; M -4.60206): 107.845
- Figure 2c: MST binding curve, Mean ([4]; M -4.90309): 92.9206
- Figure 2c: MST binding curve, Mean ([4]; M -5.20412): 96.8426
- Figure 2c: MST binding curve, Mean ([4]; M -5.50515): 85.0858
- Figure 2c: MST binding curve, Mean ([4]; M -5.80618): 74.1558
- Figure 2c: MST binding curve, Mean ([4]; M -6.10721): 60.9811
- Figure 2c: MST binding curve, Mean ([4]; M -6.40824): 46.911
- Figure 2c: MST binding curve, Mean ([4]; M -6.70927): 34.266
- Figure 2c: MST binding curve, Mean ([4]; M -7.31133): -0.7525
- Figure 2c: MST binding curve, Mean ([4]; M -7.61236): 4.6276
- Figure 2c: MST binding curve, Mean ([4]; M -7.91339): 1.8858
- Figure 2c: MST binding curve, Mean ([4]; M -8.21442): 1.3955
- Figure 2c: MST binding curve, Mean ([4]; M -8.51545): 4.478
- Figure 2c: MST binding curve, Mean ([4]; M -8.81648): -6.1144
- Kd [5]: 1600 ± 400 nM
- Affinity of SA47 with GLUT3 S71A ([5]; S71A versus WT): decreased the affinity; also recorded: reduced affinity
- SA47 binding to GLUT3 T28A [6]: abolished the binding
- Water solubility [7]: limited
